Where two headings read alike, the source gives them in different places. Where a SMILES comes first, the peptide text is derived from it. The star is where a group is joined. Cbz = O=C(OCc1ccccc1)*; CH2F = FC*
Tested on: N27 cells
Settings: for potency in attenuating apoptosis compared with caspase-3 inhibitor DEVD-FMK, in words: 6-OHDA model
Procedure: […] Z is the abbreviation for N-benzyloxycarbonyl. Untreated cells were used as control samples. After the treatment, the cells were collected by trypsinization (Trypsin 0.25%, 1 mM EDTA), centrifuged at 200×g for 5 min, washed with PBS twice, then lysed. The lysate was used for DNA fragmentation assay.
DNA fragmentation assays were performed using a recently developed Cell Death Detection ELISA Plus Assay Kit. This is a fast, highly sensitive and reliable assay for the detection of early changes in apoptotic cell death. After treatments, 20 μl of cell lysate was processed according to the manufacturer's protocol. The assay solution consisted of a mixture of anti-histone biotin and anti-DNA-HRP directed against various histones and antibodies to both single stranded DNA and double stranded DNA, the major constituents of nucleosomes. After 2 hr incubation, unbound components were removed by washing with the incubation buffer supplied with the kit. Quantification of the nucleosomes retained by anti-DNA-HRP in the immunocomplex was determined spectrophotometrically with ABTS (2,2′-azino-di[3-ethoxybenzyl thiazoline sulfonate) as a HRP substrate (supplied with the kit). Measurements were made at 405 nm against an ABTS solution as a blank (reference wave length 490 nm).
Chemicals. Protease cocktail, ATP, protein-A-sepharose, protein-G-sepharose and anti-â-actin antibody were obtained from Sigma-Aldrich (St. Louis, Mo.); mouse tyrosine hydroxylase antibody was purchased from Chemicon (Temecula, Calif.); the rabbit polyclonal antibody for tyrosine hydroxylase was obtained from Calbiochem Bioscience, Inc. (King of Prussia, Pa.); rabbit PKCδ antibody was purchased from Santa Cruz Biotechnology, Inc. (Santa Cruz, Calif.); anti-rabbit and anti-mouse secondary antibodies and the ECL chemiluminescence kit were purchased from Amersham Pharmacia Biotech. (Piscataway, N.J.). Alexa 488 conjugated antirabbit/mouse, Cy3 conjugated anti-rabbit/mouse antibody and Hoechst 33342 were purchased from Molecular Probes, Inc. (Eugene, Oreg.). [ã-32P]ATP was purchased from Perkin Elmer Life Science Products (Boston, Mass.). The Bradford protein assay kit was purchased from Bio-Rad Laboratories (Hercules, Calif.). RPMI, fetal bovine serum, -glutamine, penicillin, and streptomycin were purchased from Invitrogen (Gaithersburg, Md.). Quantity One 4.2.0 software was purchased from Bio-Rad. Design and synthesis of z-DIPD-fmk (SEQ ID NO:5). To develop a cell permeable peptide inhibitor to specifically block PKCδ cleavage, we designed the tetrapeptide Asp-Ile-Pro-Asp (DIPD) (SEQ ID NO:5) corresponding to position 324-327 in rat PKCδ cDNA representing the caspase-3 cleavage site. Since this peptide is directed against the caspase-3 cleavage site of PKCδ, it should prevent the proteolytic cleavage and activation of PKCδ mediated by caspase-3. The custom synthesis of the tetrapeptide Z-Asp(OMe)-Ile-Pro-Asp(OMe)-FMK (SEQ ID NO:5) was performed at MP Biomedicals (Irvine, Calif.), a quality company that specializes in developing cell permeable peptide inhibitors directed against apoptosis cell signaling molecules. Briefly, the synthesis was performed with the reaction of Boc-D(OMe)-OH with MBFM (Magnesium benzyl fluoromalonate) to produce Beta-Keto fluoroester, followed by hydrogenation with Pd/c to produce Boc-D(OMe)FK, which was converted into Tfa salt using trifluoroacetic acid. Coupling of Tfa salt with Z-D(OMe)—I—P—OH in DMF with HOBT, HBTU DIEA and workup produced a crude product which was purified by column chromatography over silica gel. Elution with EtOAC:MeOH 95:5 gave pure fractions which were mixed and dried. Crystallization with EtOAC/Hexane, filtration and drying produced the pure product. Animals.

Compound: CC[C@H](C)[C@H](NC(=O)[C@H](CC(=O)OC)NC(=O)OCc1ccccc1)C(=O)N1CCC[C@H]1C(=O)N[C@@H](CC(=O)OC)C(=O)CF [z-DIPD-fmk, Z-Asp(OMe)-Ile-Pro-Asp(OMe)-FMK] (Cbz-D(OMe)IPD(OMe)-CH2F)
- effect on 6-OHDA-induced DNA fragmentation / apoptotic cell death (100 μM 6-OHDA 24 hr, concentration not stated or dose-response 1-50 μM, listed as N-benzyloxycarbonyl-Asp(OMe)-Ile-Pro-Asp(OMe)-FMK): effectively blocked
- effect on 6-OHDA-induced DNA fragmentation (100 μM 6-OHDA 24 hr, inhibitor 50 μM): completely blocked
- effect on MPP+-induced DNA fragmentation (300 μM MPP+ 36 hr, inhibitor 50 μM): significantly attenuated
- potency in attenuating apoptosis compared with caspase-3 inhibitor DEVD-FMK, in words: much more potent
- potency in attenuating apoptosis compared with caspase-3 inhibitor DEVD-FMK, in words (listed as N-benzyloxycarbonyl-Asp(OMe)-Ile-Pro-Asp(OMe)-FMK): more potent
- effect on MPP+-induced DNA fragmentation (MPP+, inhibitor concentration not stated): dose-dependently attenuated
- effect on MPP+-induced DNA fragmentation (MPP+, inhibitor concentration not stated, listed as N-benzyloxycarbonyl-Asp(OMe)-Ile-Pro-Asp(OMe)-FMK): inhibited
- potency relative to z-DEVD-fmk at protecting against 6-OHDA-induced apoptotic cell death (from IC50 values): at least 3 times
- effect on 6-OHDA-induced DNA fragmentation (inhibitor as low as 3 μM): almost completely inhibits
- IC50 (read-out: IC50, 6-OHDA-induced DNA fragmentation (apoptotic cell death), 100 μM 6-OHDA 24 hr, inhibitor 1-50 μM): 6 µM

— patent US7632819B1, “Methods and compositions for inhibiting PKC delta cleavage for treatment and prevention of neurodegeneration and apoptosis” (Iowa State University Research Foundation, Inc., priority 2004, dated 2009)
